These are literature values, as cited in US20220265689A1, “HIV PRE-EXPOSURE PROPHYLAXIS” (THE UNITED STATES OF AMERICA ,AS REPRESENTED BY THE …, priority 2019, published 2022).

The data set concerns HIV-1. Particulars: HIV-1 T cells, activated PBMCs, macrophages.

Regarding `CC(C)OC(=O)[C@H](C)N[P@](=O)(CO[C@H](C)Cn1cnc2c(N)ncnc21)Oc1ccccc1` [TAF, tenofovir alafenamide], the “enhanced anti-HIV activity relative to tenofovir” value is on record as 500- to 10300 fold.
